{"source": "patent US12109190B2", "about": "“Urolithins as immune response enhancers” (Amazentis SA, priority 2018, dated 2024)", "key": {"[1]": {"tested_on": "haematopoietic stem cells (HSCs) and multipotent progenitor cells (MPPs)", "experiment": "Flow cytometry of bone marrow haematopoietic progenitor cell populations from aged mice fed Urolithin A", "assay_type": "in vivo", "settings": "aged C57BL/6J mice, 50 mg/kg/day in diet, 34 weeks; for HSC population as % of total bone marrow cells and number of cells: FIG. 4, versus untreated aged animals, cell number p<0.05, 50 mg/kg/day", "method": "To determine if Urolithin A treatment had any effects on stem cell populations, haematopoietic stem cells, (HSCs) and multipotent progenitor cells (MPPs) were isolated from aged C57BL/6J mice that received either a standard rodent diet or a diet containing Urolithin A mixed with food to reach a dosing of 50 mg/kg/day delivered to mice. Mice were treated with urolithin A starting at 16 months of age and received 34 weeks of treatment. At end of the treatment period mice were sacrificed and bone marrow collected from the femur and tibia bones. Single-cell suspensions were made following cell extraction from the bones after removal of muscle and connective tissue.\nTo determine the effects of Urolithin A treatment on the different progenitor cells of the haematopoietic system, the number and percentage of each progenitor cell type was determined using flow cytometry. Flow cytometry allowed the selection and quantification of cells with different patterns of protein expression on their cell surface. Using labeled monoclonal antibodies, it was possible to identify the different progenitor cell population based on their cell surface protein expression. To isolate the undifferentiated cells which would contain the progenitor population, bone marrow cells were stained with a cocktail of monoclonal antibodies against the cell surface proteins specific to the more differentiated cell types. The antibodies to these proteins, also known as lineage markers were CD3e (17A2), CD4 (GK1.5), CD8a (53.6.7), CD11b (M1/70), CD19 (1D3), Gr1 (RB6.8C5), Ter119 and NK1.1 (PK136), these were conjugated to Alexa 647 [Alexa Fluor 647 dye is a bright, far-red—fluorescent dye used as a label in, for example, fluorescence microscopy]. To discriminate the various lineage progenitor cell populations the isolated bone marrow cells were stained with monoclonal antibodies against the following progenitor cell surface protein markers containing the following labels CD34 (RAM 34)-FITC; CD135 (Flt3 A2F10)-PE; CD48 (HM48.1)-biotin+PE Texas Red Streptavidin; CD117 (ckit 2B8) PerCp-Cy5.5; Sca1 (D7)-PE-Cy7. Cell analysis of the stained cells was performed on a Becton Dickson Flow cytometer (Franklin Lake, NJ, USA) and collected data was analyzed using Flowjo™ software (an analysis platform for single-cell flow cytometry analysis). Bone marrow was isolated from three mice receiving Urolithin A treatment, and six control untreated mice.\nTo identify the different populations of haematopoietic progenitor cells present in the isolated bone marrow cells, the isolated bone marrow cells were selected based on their cell surface marker combinations. A so-called gating strategy was employed, in which a particular population of cells is selected (gated) based on the pattern of cell surface protein expression, and then this sub-selected population then is further examined for its cell surface protein expression. […] Uncommitted progenitor cells were examined by selecting cells that were negative for the cell surface proteins found on differentiated cells (lineage markers) described above (FIG. 2B). From this population of lineage negative cells, cells were selected that stained positive for the cells surface markers, CD117 (c-kit) and Sca1. This subpopulation of lineage negative, CD117 & Sca1 positive cells (LKS cells) contain the progenitor stem cells (FIG. 2C).\nLKS cells can be further divided into four different progenitor cell types, HSC (LT-HSC), MPP 1 (ST-HSC), MPP2, and MPP3 or LMPP with decreasing levels of quiescence (FIG. 1B). The most quiescent and non-committed cells are the HSC cells. To differentiate between these cell populations in the LKS cells, Cells were examined for their expression of CD150 and CD48. The most primitive quiescent cell populations, HSC+MPP1, are positive for the cell surface marker for CD150 and negative for the cell surface marker CD48. […]"}, "IL-10 / IL-12 (p40)": {"tested_on": "IL-10 / IL-12 (p40)", "experiment": "Plasma cytokines (MILLIPLEX panel) in aged mice after Urolithin A in diet", "assay_type": "in vivo", "settings": "22 months old male C57BL/6J mice, 50 mg/kg/day in diet, 6 weeks; FIG. 6; p<0.05", "method": "Urolithin A is admixed to AIN-93G Growing Rodent Diet (Research Diet, New Brunswick, NJ, USA) at a concentration of 0.5 g/per kg of diet, corresponding to a dose of 50 mg/kg/dy. Pellets with or without UA are given to 22 months old male C57BL/6J mice (Janvier, Saint Berthevin, France) for 6 weeks. A total of 32 mice are housed individually and randomized to 16 animals per group according to their exercise capacity. Animals who die spontaneously during the experiments are excluded from the calculations. These criteria were established before starting the experiments. Animals are euthanized after 6 weeks of treatment after an overnight fasting before collecting blood samples by the vena cava. Blood samples are centrifuged for 15 minutes at 1,500×g, and the plasma supernatant is transferred into a clean tube. Plasma is analyzed for cytokines using the MILLIPLEX MAP Mouse Cytokine/Chemokine Magnetic Bead Panel (MCYTOMAG-70K).\nIL-10 is an important anti-inflammatory cytokine (Fiorentino D F, et al., IL-10 inhibits cytokine production by activated macrophages. J Immunol. 1991 Dec. 1; 147(11):3815-22; Fiorentino D F et al., IL-10 acts on the antigen-presenting cell to inhibit cytokine production by Th1 cells. J Immunol. 1991 May 15; 146(10):3444-51). […]"}}}
{"smiles": "O=c1oc2cc(O)ccc2c2ccc(O)cc12", "note": "[Urolithin A]", "values": [{"measurement": "HSC population as % of total bone marrow cells and number of cells", "setting": "[1]", "result": "increase"}, {"measurement": "HSC population as % of total bone marrow cells and number of cells", "setting": "[1]; listed as urolithin A", "result": "significant increase"}, {"measurement": "LSK (c-Kit+, Lin-, Sca1+) progenitor cells as % of lineage negative cells", "setting": "[1]; bone marrow, example plot FIG. 2C, control 3.16%", "result": 5.27, "unit": "%"}, {"measurement": "% of LSK cells that are HSC+MPP1 (CD150+, CD48-)", "setting": "[1]; example animal FIG. 3, untreated 53.1%", "result": 61.7, "unit": "%"}, {"measurement": "% of HSC+MPP1 cells that are HSC (CD34-)", "setting": "[1]; example animal FIG. 3, untreated 73.8%", "result": 81.7, "unit": "%"}, {"measurement": "HSC + MPP1, % of undifferentiated cells (LSK cells)", "setting": "[1]; group value n=3, untreated 40.75 ± 7.42%, p < 0.01", "result": "58.97 ± 11.30", "unit": "%"}, {"measurement": "ratio of IL-10 over IL-12 (p40) in plasma", "setting": "IL-10 / IL-12 (p40)", "result": "significant increase"}]}
